Laboratory results published in patent US7479540B1, “Adipomodulin and related molecules and methods” (priority 2003, dated 2009).
Values joined by “and” are separate entries in the source; they are usually repeats but may differ in a detail not shown here. Identical values can stand only once.

Key:
cAMP = cAMP radioimmunoassay in differentiated NIH 3T3-L1 adipocytes; format: cell-based, mouse
Experimental: (§1) Stimulation of lipolysis in differentiated 3T3-L1 cells was measured according to the procedure described in Hirsch, A. H. & Rosen, O. M., “Lipolytic stimulation modulates the subcellular distribution of hormone-sensitive lipase in 3T3-L1 cells,” J. Lipid Res., vol. 25, pp. 665-667 (1984), which is incorporated herein in its entirety. The 3T3-L1 preadipocyte cell line (from ATCC) was differentiated by treating confluent monolayers with dexamethasone 0.5 μM, 0.15 μM insulin, and methylisobutylxanthine (IBMX) 0.5 mM. After 48 hours, the cells were fed with fresh medium containing 0.15 μM insulin and maintained in culture for 24 hours. Next, the cells were maintained in insulin-free DMEM containing 10% fetal bovine serum for 4-5 days. On the day of experimentation, the differentiated cells were incubated in serum-free DMEM containing 0.2% fatty acid free BSA and 5 mM glucose and treated with adipomodulin, adipomodulin elution buffer, or IBMX at 37° C. for 4 hours. […] The levels of cAMP in the cytosol and the supernatant were measured by competitive radioimmunoassay. […] After several washing steps, the complexes of radioactive cAMP-antibody are counted in a gamma counter. […]

NIH 3T3-L1 adipocytes = experiment: Lipolysis (glycerol) in differentiated NIH 3T3-L1 adipocytes (Example 8); format: cell-based, mouse; conditions: 0.1 mM, 4 hours, 37° C.
Experimental: as §1

HSL+/+ adipocytes = experiment: Lipolysis (glycerol release) in HSL+/+ adipocytes from wild type mice; format: cell-based, mouse; conditions: for Lipolysis (nmol glycerol produced): HSL +/+, 2 hours; for stimulation of lipolysis, result in words: HSL+/+ adipocytes compared with HSL−/−
Experimental: (§2) To determine whether adipomodulin acts through the classical HSL pathway, Sample 121 was tested in HSL+/+ and HSL−/− adipocytes derived from wild type and HSL knockout mice (obtained from Dr. Grant Mitchell, Sainte Justine Hospital, Montreal, Quebec, Canada), respectively. […] Lipolysis was measured as glycerol release from an adipocyte suspension. In each experiment, adipocytes were pooled from perigonadal fat of two to four 6-month-old mice of the same gender and genotype. One hundred microliters of adipocyte suspension were incubated for 2 hours in a final volume of […] of Krebs-Ringer-HEPES (30 mM) buffer (pH 7.4) supplemented with 2.5% BSA, 2.5% N6-[R-(−)-1-methyl-2-phenyl] adenosine ([…]), and 1 U/mL adenosine deaminase. In some tubes, the lipolytic beta3-adrenergic agonist CL316,243 ([…]) (Wyeth-Ayerst Research Laboratories, Princeton, N.J.) or cAMP agonist (dibutryl cAMP) were added. After a 2-hour incubation, the reaction was stopped by freezing on dry ice. The mixture was extracted with chloroform to remove triglycerides, and glycerol content was then determined by glycerol assay kit (Roche Diagnostics).

HSL−/− adipocytes = experiment: Lipolysis (glycerol release) in HSL-/- adipocytes from HSL knockout mice; format: cell-based, mouse; conditions: 2 hours
Experimental: as §2

[1] = biological target: receptor for adipomodulin on NIH 3T3-L1 adipocytes (mouse); experiment: 125I-ligand binding to 3T3-L1 adipocytes at 4 C, 2 h, competitor: excess unlabeled λ- + k-light chain mix

Row | Molecule | Lipolysis (nmol glycerol produced) (HSL+/+ adipocytes; 10 uM) | stimulation of lipolysis, result in words (HSL+/+ adipocytes) | Lipolysis (nmol glycerol produced) (HSL−/− adipocytes; 10 uM) | other results
1 | CC(C)Cn1c(=O)n(C)c(=O)c2[nH]cnc21 [IBMX, methylisobutylxanthine] |  |  |  | cAMP (cAMP; 0.1 mM, 4 hours, 37° C.): 69 ± 4 fmol/well; effect on cAMP, result in words (cAMP; versus medium control and elution buffer controls): significant stimulation of cAMP; Lipolysis (NIH 3T3-L1 adipocytes): 3400 ± 50 pmol glycerol/well
2 | CC(C)NCC(O)c1ccc(O)c(O)c1 (stereo not drawn) [Isoproterenol, isoproterenol] | 5.8 ± 1.0 | stimulated lipolysis most dramatically in HSL+/+ adipocytes | 0.9 ± 0.2 | 
3 | CCCC(=O)Nc1ncnc2c1ncn2[C@@H]1O[C@@H]2COP(=O)(O)O[C@H]2[C@H]1OC(=O)CCC [Dibutryl cAMP, dibutryl cAMP] |  | stimulated lipolysis most dramatically in HSL+/+ adipocytes |  | Lipolysis (nmol glycerol produced) (HSL+/+ adipocytes; 1 mM): 7.6 ± 1.0 nmol glycerol produced; Lipolysis (nmol glycerol produced) (HSL−/− adipocytes; 1 mM): 1.1 ± 0.1 nmol glycerol produced
4 | C[C@H](Cc1ccc2c(c1)OC(C(=O)[O-])(C(=O)[O-])O2)NC[C@H](O)c1cccc(Cl)c1.[Na+].[Na+] [CL316, 243] | 6.2 ± 1.1 |  | 1.1 ± 0.3 | 
5 | adipomodulin (Sample 122) |  |  |  | Binding, CPM/well [1]: 3230 CPM/well and 3840 CPM/well
